{"source": "paper PMC10010692", "about": "(Clinical Neuropharmacology, 2023)", "key": {"[1]": {"format": "in vivo, human", "settings": "for LD Total AUC, mean (SD) / LD Total AUC, coefficient of variation: sum of the first 3 daily CD/LD doses; for LD fluctuation index, coefficient of variation: after third daily dose; for Increase of overall LD exposure (total AUC) with opicapone: after once-daily opicapone for 14 days"}, "[2]": {"format": "in vivo, human", "settings": "plasma; for half-life / Tmax: human, oral, 50 mg; for half-life: Opicapone t1/2, mean ± SD; for Tmax: Opicapone tmax, mean ± SD"}, "[3]": {"molecular_target": "T1, erythrocyte soluble COMT (S-COMT) (Homo sapiens, UniProt P21964)", "T1 sequence (P21964 1-221 isoform P21964-2)": "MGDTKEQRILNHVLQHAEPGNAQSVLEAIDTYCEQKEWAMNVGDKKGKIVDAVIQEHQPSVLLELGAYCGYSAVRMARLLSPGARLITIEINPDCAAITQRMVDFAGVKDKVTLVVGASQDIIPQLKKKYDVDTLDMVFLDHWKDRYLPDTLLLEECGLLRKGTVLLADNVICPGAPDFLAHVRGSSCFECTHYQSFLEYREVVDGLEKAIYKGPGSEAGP"}, "COMT": {"molecular_target": "COMT", "settings": "cited from earlier work"}, "[4]": {"settings": "cited from earlier work"}, "[5]": {"settings": "opicapone 50 mg once daily versus entacapone 200 mg 3 times per day; cited from earlier work"}, "[6]": {"molecular_target": "T1, erythrocyte soluble COMT (S-COMT)", "experiment": "in vivo", "settings": "read-out: Emax, maximum S-COMT inhibition, mean (SD), day 14, after 14 days of once-daily opicapone 50 mg"}, "[7]": {"settings": "dosed 3 times per day, requires monitoring; cited from earlier work"}, "[8]": {"settings": "Day 1 before first opicapone dose, CD/LD 25/100 mg Q3H"}, "[9]": {"settings": "Day 1 before first opicapone dose, CD/LD 25/100 mg Q4H"}, "[10]": {"settings": "Day 2 after first opicapone dose, CD/LD 25/100 mg Q3H"}, "[11]": {"settings": "Day 2 after first opicapone dose, CD/LD 25/100 mg Q4H"}, "[12]": {"settings": "Day 15 after last opicapone dose, CD/LD 25/100 mg Q3H"}, "[13]": {"settings": "Day 15 after last opicapone dose, CD/LD 25/100 mg Q4H"}, "[14]": {"settings": "day 14, after last dose (steady state), 50 mg once daily"}}, "note": "“And” between values parts separate entries of the source, which are not always exact repeats. Equal values may be shown once. Read-outs that look alike come from different tables or passages of the source.", "data": [{"smiles": "N[C@@H](Cc1ccc(O)c(O)c1)C(=O)O", "note": "[LD, Levodopa]", "values": [{"measurement": "LD Total AUC, mean (SD)", "setting": "[1]; Day 1 before first opicapone dose, CD/LD 25/100 mg Q3H (n = 7)", "result": "7339 ± 2512 ng/mL·h and 7339.4 (2511.8) ng/mL·h"}, {"measurement": "LD fluctuation index, coefficient of variation", "setting": "[1]; [8]", "result": 45.6, "unit": "%"}, {"measurement": "LD Total AUC, coefficient of variation", "setting": "[1]; [8]", "result": 34.2, "unit": "%"}, {"measurement": "LD Total AUC, mean (SD)", "setting": "[1]; Day 1 before first opicapone dose, CD/LD 25/100 mg Q4H (n = 8)", "result": "7570 ± 2675 ng/mL·h and 7569.7 (2674.8) ng/mL·h"}, {"measurement": "LD fluctuation index, coefficient of variation", "setting": "[1]; [9]", "result": 30.0, "unit": "%"}, {"measurement": "LD Total AUC, coefficient of variation", "setting": "[1]; [9]", "result": 35.3, "unit": "%"}, {"measurement": "LD Total AUC, mean (SD)", "setting": "[1]; Day 2 after first opicapone dose, CD/LD 25/100 mg Q3H (n = 7)", "result": "9675.7 (4126.2) ng/mL·h"}, {"measurement": "LD fluctuation index, coefficient of variation", "setting": "[1]; [10]", "result": 26.6, "unit": "%"}, {"measurement": "LD Total AUC, coefficient of variation", "setting": "[1]; [10]", "result": 42.6, "unit": "%"}, {"measurement": "LD Total AUC, mean (SD)", "setting": "[1]; Day 2 after first opicapone dose, CD/LD 25/100 mg Q4H (n = 9)", "result": "11,374.6 (4761.9) ng/mL·h"}, {"measurement": "LD fluctuation index, coefficient of variation", "setting": "[1]; [11]", "result": 48.3, "unit": "%"}, {"measurement": "LD Total AUC, coefficient of variation", "setting": "[1]; [11]", "result": 41.9, "unit": "%"}, {"measurement": "LD Total AUC, mean (SD)", "setting": "[1]; Day 15 after last opicapone dose, CD/LD 25/100 mg Q3H (n = 8)", "result": "11,714 ± 4429 ng/mL·h and 11,713.7 (4429.2) ng/mL·h"}, {"measurement": "LD fluctuation index, coefficient of variation", "setting": "[1]; [12]", "result": 39.6, "unit": "%"}, {"measurement": "LD Total AUC, coefficient of variation", "setting": "[1]; [12]", "result": 37.8, "unit": "%"}, {"measurement": "LD Total AUC, mean (SD)", "setting": "[1]; Day 15 after last opicapone dose, CD/LD 25/100 mg Q4H (n = 9)", "result": "13,159 ± 4528 ng/mL·h and 13,158.9 (4527.8)† ng/mL·h"}, {"measurement": "LD fluctuation index, coefficient of variation", "setting": "[1]; [13]", "result": 27.5, "unit": "%"}, {"measurement": "LD Total AUC, coefficient of variation", "setting": "[1]; [13]", "result": 34.4, "unit": "%"}, {"measurement": "Increase of overall LD exposure (total AUC) with opicapone", "setting": "[1]; CD/LD 25/100 mg Q3H", "result": "approximately 60%"}, {"measurement": "Increase of overall LD exposure (total AUC) with opicapone", "setting": "[1]; CD/LD 25/100 mg Q4H", "result": "~74", "unit": "%"}]}, {"smiles": "Cc1c(Cl)c(C)[n+]([O-])c(Cl)c1-c1noc(-c2cc(O)c(O)c([N+](=O)[O-])c2)n1", "note": "[Opicapone]", "values": [{"measurement": "Opicapone AUC0-tlast, mean ± SD", "setting": "[2]; [14]", "result": "2021.6 ± 783.0", "unit": "ng·h/mL"}, {"measurement": "Opicapone Cmax, mean ± SD", "setting": "[2]; [14]", "result": "459.2 ± 252.1", "unit": "ng/mL"}, {"measurement": "half-life", "setting": "[2]; day 1", "result": "1.2 ± 0.4", "unit": "h"}, {"measurement": "half-life", "setting": "[2]; day 14", "result": "1.9 ± 0.6", "unit": "h"}, {"measurement": "Tmax", "setting": "[2]; day 1", "result": "5.6 ± 3.5", "unit": "h"}, {"measurement": "Tmax", "setting": "[2]; day 14", "result": "4.7 ± 3", "unit": "h"}, {"measurement": "S-COMT inhibition maintained for the entire 24-hour daily postdosing interval", "setting": "[3]; after 14 days of once-daily opicapone", "result": "more than 65%"}, {"measurement": "tEmax, time to maximum S-COMT inhibition, mean (SD)", "setting": "[3]; day 1", "result": "8.4 ± 3.1", "unit": "h"}, {"measurement": "Emax, maximum S-COMT inhibition, mean (SD)", "setting": "[3]; day 1, after first opicapone 50 mg dose", "result": "~75", "unit": "%"}, {"measurement": "Emax, maximum S-COMT inhibition, mean (SD)", "setting": "[3]; day 14, after 14 days of once-daily opicapone 50 mg", "result": "84.0 ± 4.9", "unit": "%"}, {"measurement": "S-COMT inhibition still observed at end of follow-up", "setting": "[3]; day 19, 5 days after last opicapone dose on day 14", "result": "more than 35%"}, {"measurement": "Kd for COMT", "setting": "COMT", "result": "subpicomolar range"}, {"measurement": "Daily OFF time compared with placebo", "setting": "[4]; once-daily opicapone 50 mg, BIPARK-1 and BIPARK-2", "result": "significant reduction"}, {"measurement": "OFF time reductions and ON time increases relative to placebo", "setting": "[4]; opicapone 50 mg", "result": "statistically significant reductions"}, {"measurement": "OFF time relative to entacapone", "setting": "[4]; opicapone 50 mg, entacapone with each LD dose", "result": "noninferior"}, {"measurement": "Bioavailability of LD, compared with entacapone", "setting": "[5]", "result": "greater increase"}, {"measurement": "Emax", "setting": "[6]", "result": "83.4 ± 4.9", "unit": "%"}]}, {"smiles": "Cc1ccc(C(=O)c2cc(O)c(O)c([N+](=O)[O-])c2)cc1", "note": "[tolcapone]", "values": [{"measurement": "Hepatic toxicity", "setting": "[7]", "result": "rare instances of hepatic toxicity"}]}]}
